From US10774064B2 (Cadent Therapeutics, Inc., priority 2016, dated 2020)

What follows are compounds tested against T1, small-conductance Ca2+-activated K+ channels (SK channels, subtype 2) (Homo sapiens, UniProt Q9H2S1) (assay: whole-cell patch-clamp of ionic current through SK2 channels in HEK293 cells (SC100)). Details: concentration that increases the basal current by 100%; HEK293 cells expressing SK2 channels.
T1 construct: expressed in transfected cells; host or cells: HEK293
Assay type: cell-based
Method in brief: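 Whole-cell patch-clamp recording of current in HEK293 cells expressing SK2 channels. SC100 is the compound concentration that increases basal current by 100%.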
In the case of CC1CN(c2cc(NC3CCC(F)(F)CC3)nc(-n3ccc(CF)n3)n2)CC(C)O1 (centres unmarked) [Compound 294, N-(4,4-difluorocyclohexyl)-6-(2,6-dimethylmorpholino)-2-(3-(fluoromethyl)-1H-pyrazol-1-yl)pyrimidin-4-amine], the SC100 is reported as “++ (++ means 200 nM-1000 nM)”. With COC(=O)N1CC(Oc2cc(NC3CCC(F)(F)CC3)nc(-n3ccc(C(F)F)n3)n2)C1 [Compound 295, methyl 3-((6-((4,4-difluorocyclohexyl)amino)-2-(3-(difluoromethyl)-1H-pyrazol-1-yl)pyrimidin-4-yl)oxy)azetidine-1-carboxylate] the SC100 was “++ (++ means 200 nM-1000 nM)”. CC(C)OC(=O)N1CC(Oc2cc(NC3CCC(F)(F)CC3)nc(-n3ccc(CF)n3)n2)C1 [Compound 296, isopropyl3-((6-((4,4-difluorocyclohexyl)amino)-2-(3-(fluoromethyl)-1H-pyrazol-1-yl)pyrimidin-4-yl)oxy)azetidine-1-carboxylate] was tested, and the SC100 was “++ (++ means 200 nM-1000 nM)”. For COC(=O)N1CCC(Oc2cc(NC3CCC(F)(F)CC3)nc(-n3ccc(CF)n3)n2)C1 (centres unmarked) [Compound 297, methyl 3-((6-((4,4-difluorocyclohexyl)amino)-2-(3-(fluoromethyl)-1H-pyrazol-1-yl)pyrimidin-4-yl)oxy)pyrrolidine-1-carboxylate], the SC100 was “++ (++ means 200 nM-1000 nM)”. CC(C)(C)C(=O)N1CC(Oc2cc(NC3CCC(F)(F)CC3)nc(-n3ccc(C(F)F)n3)n2)C1 [Compound 298, 1-(3-((6-((4,4-difluorocyclohexyl)amino)-2-(3-(difluoromethyl)-1H-pyrazol-1-yl)pyrimidin-4-yl)oxy)azetidin-1-yl)-2,2-dimethylpropan-1-one] was tested, and the SC100 was “++ (++ means 200 nM-1000 nM)”. O=C(N1CC(Oc2cc(NC3CCC(F)(F)CC3)nc(-n3ccc(C(F)F)n3)n2)C1)C(F)(F)F [Compound 299, 1-(3-((6-((4,4-difluorocyclohexyl)amino)-2-(3-(difluoromethyl)-1H-pyrazol-1-yl)pyrimidin-4-yl)oxy)azetidin-1-yl)-2,2,2-trifluoroethan-1-one] was tested, and the SC100 was “++ (++ means 200 nM-1000 nM)”. With Cc1cc(C)n(Cc2cc(NC3CCC(F)(F)CC3)nc(-n3ccc(CF)n3)n2)n1 [Compound 300, N-(4,4-difluorocyclohexyl)-6-((3,5-dimethyl-1H-pyrazol-1-yl)methyl)-2-(3-(fluoromethyl)-1H-pyrazol-1-yl)pyrimidin-4-amine] the SC100 was “+ (+ means >1 uM)”. With CC(=O)NCc1cc(NC2CCC(F)(F)CC2)nc(-n2ccc(C(F)F)n2)c1 [Compound 301, N-((2-((4,4-difluorocyclohexyl)amino)-6-(3-(difluoromethyl)-1H-pyrazol-1-yl)pyridin-4-yl)methyl)acetamide] the SC100 was “++ (++ means 200 nM-1000 nM)”. FCc1ccn(-c2cc(OC3COC3)cc(NC3CCC(F)(F)CC3)n2)n1 [Compound 302, N-(4,4-difluorocyclohexyl)-6-(3-(fluoromethyl)-1H-pyrazol-1-yl)-4-(oxetan-3-yloxy)pyridin-2-amine] was tested, and the SC100 was “++ (++ means 200 nM-1000 nM)”. In the case of Cc1cn(-c2nc(NC3CCC(F)(F)CC3)cc(OC3COC3)n2)nc1CF [Compound 304, N-(4,4-difluorocyclohexyl)-2-(3-(fluoromethyl)-4-methyl-1H-pyrazol-1-yl)-6-(oxetan-3-yloxy)pyrimidin-4-amine], the SC100 is reported as “++ (++ means 200 nM-1000 nM)”. For COC(=O)N1CCC(Oc2cc(NC3CCC(F)(F)CC3)nc(-n3ccc(C(F)F)n3)n2)C1 (centres unmarked) [Compound 305, methyl 3-((6-((4,4-difluorocyclohexyl)amino)-2-(3-(difluoromethyl)-1H-pyrazol-1-yl)pyrimidin-4-yl)oxy)pyrrolidine-1-carboxylate], the SC100 was “++ (++ means 200 nM-1000 nM)”. With COC(=O)N1CCC1COc1cc(NC2CCC(F)(F)CC2)nc(-n2ccc(CF)n2)n1 (centres unmarked) [Compound 306, methyl 2-(((6-((4,4-difluorocyclohexyl)amino)-2-(3-(fluoromethyl)-1H-pyrazol-1-yl)pyrimidin-4-yl)oxy)methyl)azetidine-1-carboxylate] the SC100 was “+ (+ means >1 uM)”. In the case of COC(=O)N1CC(Oc2cc(NC3CCC(F)(F)CC3)nc(-n3ccc(C(C)O)n3)n2)C1 (centres unmarked) [Compound 307, methyl 3-((6-((4,4-difluorocyclohexyl)amino)-2-(3-(1-hydroxyethyl)-1H-pyrazol-1-yl)pyrimidin-4-yl)oxy)azetidine-1-carboxylate], the SC100 is reported as “+ (+ means >1 uM)”. CN(C)C(=O)C1CC1c1cc(NC2CCC(F)(F)CC2)nc(-n2ccc(CF)n2)n1 (centres unmarked) [Compound 308, 2-(6-((4,4-difluorocyclohexyl)amino)-2-(3-(fluoromethyl)-1H-pyrazol-1-yl)pyrimidin-4-yl)-N,N-dimethylcyclopropane-1-carboxamide] was tested, and the SC100 was “+ (+ means >1 uM)”. With Cc1cn(-c2nc(NC3CCC(F)(F)CC3)cc(OC3CN(C(=O)C(C)(C)C)C3)n2)nc1CF [Compound 309, 1-(3-((6-((4,4-difluorocyclohexyl)amino)-2-(3-(fluoromethyl)-4-methyl-1H-pyrazol-1-yl)pyrimidin-4-yl)oxy)azetidin-1-yl)-2,2-dimethylpropan-1-one] the SC100 was “++ (++ means 200 nM-1000 nM)”. With COC(=O)N1CC(Oc2cc(NC3CCC(F)(F)CC3)nc(-n3cc(C)c(CF)n3)n2)C1 [Compound 310, methyl 3-((6-((4,4-difluorocyclohexyl)amino)-2-(3-(fluoromethyl)-4-methyl-1H-pyrazol-1-yl)pyrimidin-4-yl)oxy)azetidine-1-carboxylate] the SC100 was “++ (++ means 200 nM-1000 nM)”. For CC(=O)NCc1cc(NC2CCC(F)(F)CC2)nc(-n2ccc(CF)n2)c1 [Compound 312, N-((2-((4,4-difluorocyclohexyl)amino)-6-(3-(fluoromethyl)-1H-pyrazol-1-yl)pyridin-4-yl)methyl)acetamide], the SC100 was “++ (++ means 200 nM-1000 nM)”. For COC(=O)N1CCC1COc1cc(NC2CCC(F)(F)CC2)nc(-n2ccc(C(F)F)n2)n1 (centres unmarked) [Compound 314, methyl 2-(((6-((4,4-difluorocyclohexyl)amino)-2-(3-(difluoromethyl)-1H-pyrazol-1-yl)pyrimidin-4-yl)oxy)methyl)azetidine-1-carboxylate], the SC100 was “+ (+ means >1 uM)”. CC(O)c1ccn(-c2nc(NC3CCC(F)(F)CC3)cc(OC3CN(C(=O)C(C)(C)C)C3)n2)n1 (centres unmarked) [Compound 315, 1-(3-((6-((4,4-difluorocyclohexyl)amino)-2-(3-(1-hydroxyethyl)-1H-pyrazol-1-yl)pyrimidin-4-yl)oxy)azetidin-1-yl)-2,2-dimethylpropan-1-one] was tested, and the SC100 was “+ (+ means >1 uM)”. With CC(C)(C)C(=O)N1CC(Oc2cc(NC3CCC(F)(F)CC3)nc(-c3nc(CF)cs3)n2)C1 [Compound 316, 1-(3-((6-((4,4-difluorocyclohexyl)amino)-2-(4-(fluoromethyl)thiazol-2-yl)pyrimidin-4-yl)oxy)azetidin-1-yl)-2,2-dimethylpropan-1-one] the SC100 was “+++ (+++ means <200 nM)”. In the case of Cc1cn(-c2nc(NC3CCC(F)(F)CC3)cc(OC3CN(C(=O)C(C)(C)C)C3)n2)nc1C(F)F [Compound 317, 1-(3-((6-((4,4-difluorocyclohexyl)amino)-2-(3-(difluoromethyl)-4-methyl-1H-pyrazol-1-yl)pyrimidin-4-yl)oxy)azetidin-1-yl)-2,2-dimethylpropan-1-one], the SC100 is reported as “+++ (+++ means <200 nM)”. With COC(=O)N1CC(Oc2cc(NC3CCC(F)(F)CC3)nc(-n3cc(C)c(C(F)F)n3)n2)C1 [Compound 318, methyl 3-((6-((4,4-difluorocyclohexyl)amino)-2-(3-(difluoromethyl)-4-methyl-1H-pyrazol-1-yl)pyrimidin-4-yl)oxy)azetidine-1-carboxylate] the SC100 was “++ (++ means 200 nM-1000 nM)”. With O=C(N1CC(Oc2cc(NC3CCC(F)(F)CC3)nc(-n3ccc(CO)n3)n2)C1)C(F)(F)F [Compound 319, 1-(3-((6-((4,4-difluorocyclohexyl)amino)-2-(3-(hydroxymethyl)-1H-pyrazol-1-yl)pyrimidin-4-yl)oxy)azetidin-1-yl)-2,2,2-trifluoroethan-1-one] the SC100 was “+ (+ means >1 uM)”. For Cc1csc(-c2nc(NC3CCC(F)(F)CC3)cc(N3CCOCC3)n2)n1 [Compound 320, N-(4,4-difluorocyclohexyl)-2-(4-methylthiazol-2-yl)-6-morpholinopyrimidin-4-amine], the SC100 was “++ (++ means 200 nM-1000 nM)”. O=C1CCCN1Cc1cc(NC2CCC(F)(F)CC2)nc(-n2ccc(CF)n2)n1 [Compound 321, 1-((6-((4,4-difluorocyclohexyl)amino)-2-(3-(fluoromethyl)-1H-pyrazol-1-yl)pyrimidin-4-yl)methyl)pyrrolidin-2-one] was tested, and the SC100 was “+ (+ means >1 uM)”. In the case of CC(C)(C)C(=O)N1CC(Oc2cc(NC3CCC(F)(F)CC3)nc(-c3nc(C(F)(F)F)cs3)n2)C1 [Compound 322, 1-(3-((6-((4,4-difluorocyclohexyl)amino)-2-(4-(trifluoromethyl)thiazol-2-yl)pyrimidin-4-yl)oxy)azetidin-1-yl)-2,2-dimethylpropan-1-one], the SC100 is reported as “++ (++ means 200 nM-1000 nM)”. With O=C(N1CC(Oc2cc(NC3CCC(F)(F)CC3)nc(-c3nc(C(F)(F)F)cs3)n2)C1)C(F)(F)F [Compound 323, 1-(3-((6-((4,4-difluorocyclohexyl)amino)-2-(4-(trifluoromethyl)thiazol-2-yl)pyrimidin-4-yl)oxy)azetidin-1-yl)-2,2,2-trifluoroethan-1-one] the SC100 was “++ (++ means 200 nM-1000 nM)”. COC(=O)N1CC(Oc2cc(NC3CCC(F)(F)CC3)nc(-c3nc(C(F)(F)F)cs3)n2)C1 [Compound 324, methyl 3-((6-((4,4-difluorocyclohexyl)amino)-2-(4-(trifluoromethyl)thiazol-2-yl)pyrimidin-4-yl)oxy)azetidine-1-carboxylate] was tested, and the SC100 was “++ (++ means 200 nM-1000 nM)”. In the case of CC(C)C1CC(=O)N1Cc1cc(NC2CCC(F)(F)CC2)nc(-n2ccc(CF)n2)n1 (centres unmarked) [Compound 325, 1-((6-((4,4-difluorocyclohexyl)amino)-2-(3-(fluoromethyl)-1H-pyrazol-1-yl)pyrimidin-4-yl)methyl)-4-isopropylazetidin-2-one], the SC100 is reported as “+ (+ means >1 uM)”.
